{"source": "paper PMC11556746", "about": "“Anchorage of bacterial effector at plasma membrane via selective phosphatidic acid binding to modulate host cell signaling” (PLOS Pathogens, 2024)", "target": "T1, BepE-BID1 (Bartonella henselae, UniProt A0A0R4J6H0)", "T1 construct": "gene BH13420; first BID domain (BID1) of BepE, His-tagged, expressed in E. coli, Ni-NTA", "T1 sequence (A0A0R4J6H0 entry or part of it)": "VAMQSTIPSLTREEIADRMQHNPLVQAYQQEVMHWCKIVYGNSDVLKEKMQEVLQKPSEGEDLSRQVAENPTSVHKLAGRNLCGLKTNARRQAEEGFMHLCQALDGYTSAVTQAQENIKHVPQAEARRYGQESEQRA", "assay": "metasurface plasmon resonance (SPR), immobilised protein", "assay_type": "binding", "details": "lipid presented in liposomes (PC:POPA, 90% PC and 10% POPA); HBS-ET buffer", "data": [{"compound": "CCCCCCCC/C=C\\CCCCCCCC(=O)O[C@H](COC(=O)CCCCCCCCCCCCCCC)COP(=O)(O)O", "note": "[POPA]", "values": [{"measurement": "Kd", "value": "~349", "unit": "nM"}]}]}
